In patent US11191775B2, “PAPD5 and PAPD7 inhibitors for treating a hepatitis B infection” (HOFFMANN-LA ROCHE INC., priority 2016, dated 2021):
Like-named read-outs stand apart in the source and are kept apart here.

Legend:
HBV = test: HBsAg and HBeAg secretion in HepG2.2.15 cells; type: cell-based; settings: Hepatitis B virus, 72 h, incubated for 3 days, supernatant, CLIA ELISA
Procedure: To evaluate the impact on HBV antigen expression and secretion, supernatants were collected on Day 11. HBV HBsAg and HBeAg levels were measured using CLIA ELISA Kits (Autobio Diagnostic #CL0310-2, #CL0312-2), according to the manufacturer's protocol. Briefly, 25 μL of supernatant per well were transferred to the respective antibody coated microtiter plate and 25 μL of enzyme conjugate reagent were added. The plate was incubated for 60 min on a shaker at room temperature before the wells were washed five times with washing buffer using an automatic washer. 25 μL of substrate A and B were added to each well. The plates were incubated on a shaker for 10 min at room temperature before luminescence was measured using an Envision luminescence reader (Perkin Elmer).
The potency of DHQ and THP and their variants against HBV infection were measured in HepG2.2.15 cells using HBsAg and HBeAg as read out.
HepG2.2.15 cells (Sells et al 1987 Proc Natl Acad Sci USA 84, 1005-1009) were cultured in 96 well plates (15.000 cells/well in 100 uL) in DMEM+GluTaMax-1 (GiBCO Cat. NO. 10569), 1% Pen Strep (Gibco Cat. No. 15140), 10% FBS (Clontech Cat. No. 631106), Geneticin […] (Invitrogen 10131035). The compunds were tested using three-fold serial dilutions in DMSO with a top concentration of 100 μM and 9 serial dilutions. Each compound was tested in quadricate. The cells were incubated for 3 days, supernatents were collected and HBsAg and HBeAg were measured as described in the Materials and Methods section.

PAPD5 variant 1 = test: Y3H ULTImate YChemH screen; type: binding; set-up: key: confidence score of A (scale A-D); settings: prey PAPD5 variant 1; cDNA Human placenta library
Procedure: (§1) The two compounds were provided by Roche to HYBRIGENICS SERVICES SAS and tested for permeability and toxicity. Compounds were then screened against HYBRIGENICS's cDNA Human placenta library (PLA). The screens were carried out according to the optimized cell-to-cell mating protocol developed for Hybrigenics ULTImate Y2H™ using at different compound concentration (Table 2).
(§2) Clones obtained from the screen were picked in 96-well format and clones positive for growth under selective conditions (HIS+) were evaluated in a dependency assay using spot assays. Only clones that were able to grow on selective medium in the presence of the tagged compound were being picked up, processed (cell lysis, PCR, gene sequencing) and mapped for protein alignment using Blast analysis.
(§3) Both proteins PAPD5 (variant 1: NP_001035374; variant 2: NP_001035375) and PAPD7 (XP_005248291) were identified by a numerous number of fragments in the Y3H screen for both compounds (DHQ and THP) as described in the Materials and Method section. The identified proteins were ranked with a confidence score of A (scale A-D) by HYBRIGENICS (Table 6).

PAPD7 = test: Y3H ULTImate YChemH screen; type: binding; set-up: key: confidence score of A (scale A-D); settings: prey PAPD7; cDNA Human placenta library
Procedure: as §1, §2, §3

PAPD5 variant 2 = test: Y3H ULTImate YChemH screen; type: binding; set-up: key: confidence score of A (scale A-D); settings: prey PAPD5 variant 2; cDNA Human placenta library
Procedure: as §1, §2, §3

[1] = target: T1, PAPD5 var1 (experimental fragment and full length) (Homo sapiens, UniProt Q8NDF8); test: Y3H ULTImate YChemH competition with free compound; type: binding; settings: probe HBX129653 or HBX129654 1 μM, free compound 0-20 μM, FIG. 3-6
T1 construct: PAPD5 var1 full length; host or cells: diploid yeast from YHGX13 (prey) x YPT6AT (DHFR hook)
T1 sequence (Q8NDF8 1-698 isoform Q8NDF8-5): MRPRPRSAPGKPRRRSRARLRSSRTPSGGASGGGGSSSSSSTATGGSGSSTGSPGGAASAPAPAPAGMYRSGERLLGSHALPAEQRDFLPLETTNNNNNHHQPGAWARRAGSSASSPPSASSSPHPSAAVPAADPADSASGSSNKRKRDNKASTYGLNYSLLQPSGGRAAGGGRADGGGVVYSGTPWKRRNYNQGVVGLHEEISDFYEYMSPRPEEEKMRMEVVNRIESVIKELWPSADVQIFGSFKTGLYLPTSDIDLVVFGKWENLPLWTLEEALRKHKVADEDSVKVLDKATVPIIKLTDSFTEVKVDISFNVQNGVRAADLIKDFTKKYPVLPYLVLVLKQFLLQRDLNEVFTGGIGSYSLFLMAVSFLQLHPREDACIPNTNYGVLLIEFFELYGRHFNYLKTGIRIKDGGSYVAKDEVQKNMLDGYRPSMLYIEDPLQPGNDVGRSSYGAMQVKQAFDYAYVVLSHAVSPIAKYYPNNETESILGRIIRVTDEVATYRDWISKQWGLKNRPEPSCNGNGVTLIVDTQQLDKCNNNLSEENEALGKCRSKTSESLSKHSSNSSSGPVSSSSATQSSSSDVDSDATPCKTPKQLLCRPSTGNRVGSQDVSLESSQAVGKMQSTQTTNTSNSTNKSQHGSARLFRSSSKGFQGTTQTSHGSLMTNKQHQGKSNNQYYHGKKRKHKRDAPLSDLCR
Procedure: (§4) The competition assays were performed on selective medium at 8 concentrations of the free compound (0, 0.25, 0.5, 1, 2, 5, 10 and 20 μM) and a consistent concentration for the tagged Y3H-compound (1 μM).

[2] = target: T2, PAPD7 varX1 (experimental fragment and full length) (Homo sapiens, UniProt Q5XG87); test: Y3H ULTImate YChemH competition with free compound; type: binding; settings: probe HBX129653 or HBX129654 1 μM, free compound 0-20 μM, FIG. 3-6
T2 construct: PAPD7 var1 full length; host or cells: diploid yeast from YHGX13 (prey) x YPT6AT (DHFR hook)
T2 sequence (Q5XG87 whole entry, the tested form may be a part): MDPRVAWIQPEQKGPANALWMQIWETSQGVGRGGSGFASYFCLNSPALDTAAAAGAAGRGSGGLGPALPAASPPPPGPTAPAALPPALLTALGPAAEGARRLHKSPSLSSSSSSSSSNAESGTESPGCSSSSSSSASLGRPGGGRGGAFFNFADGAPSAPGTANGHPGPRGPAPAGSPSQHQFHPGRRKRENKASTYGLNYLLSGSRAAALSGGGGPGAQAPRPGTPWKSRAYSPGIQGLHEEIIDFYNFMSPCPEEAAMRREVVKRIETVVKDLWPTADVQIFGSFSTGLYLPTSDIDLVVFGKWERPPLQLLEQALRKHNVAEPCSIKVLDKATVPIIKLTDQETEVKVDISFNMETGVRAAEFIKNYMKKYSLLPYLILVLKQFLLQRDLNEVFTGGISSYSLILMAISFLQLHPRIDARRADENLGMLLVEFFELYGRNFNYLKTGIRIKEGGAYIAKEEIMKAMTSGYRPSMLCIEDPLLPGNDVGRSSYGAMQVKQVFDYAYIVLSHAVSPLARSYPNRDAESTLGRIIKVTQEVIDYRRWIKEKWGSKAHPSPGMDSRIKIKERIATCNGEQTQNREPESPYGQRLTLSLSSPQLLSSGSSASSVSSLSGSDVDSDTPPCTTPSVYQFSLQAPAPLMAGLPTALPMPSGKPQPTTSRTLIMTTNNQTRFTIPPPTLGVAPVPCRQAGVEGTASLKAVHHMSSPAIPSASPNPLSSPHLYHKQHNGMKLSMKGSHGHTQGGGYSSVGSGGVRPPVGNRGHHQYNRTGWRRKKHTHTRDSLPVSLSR
Procedure: as §4

[3] = test system: PAPD5 variant 1 and variant 2 prey fragments; test: Y3H ULTImate YChemH 1-by-1 validation, prey fragments; type: binding, human; settings: PAPD5 variant 1 and 2 fragments; tested at 5, 10 and 20 μM; FIG. 1
Procedure: (§5) In this validation step each one identified fragment prey and one chemical probe (HBX129653, HBX129654) is tested in a 1-by-1 experiment. The plasmids from 3 selected preys from the screening library were extracted from the yeast cells, amplified in E. coli and re-transformed into YHGX13 yeast cells. For each interaction, DO1, 1/10, 1/100 and 1/1000 of the diploid yeast culture expressing both hook and prey constructs were spotted on a selective medium without tryptophan, leucine and histidine and supplemented with the chemical probe and FK506. Interactions were tested in duplicate. One plate was used per chemical compound and concentration (DMSO, 5, 10 and 20 μM of HBX129653, 5, 10 and 20 μM of HBX129654, 5 μM of HBX24786 Trimethoprim (TMP) and 5 μM of HBX129634 (TMP-PEG5-OH)). Plates were incubated at 30° C. for 3 days.
(§6) In a first validation step three fragments identified in the first screen were selected for the 1-by-1 validation assay (as described in the Materials and Method section) and tested at three different concentrations (5, 10 and 20 μM) (Table 7).

PAPD7 prey fragment = test: as above; type: binding, human; settings: tested at 5, 10 and 20 μM, FIG. 1
Procedure: as §5, §6

PAPD5 var1 full length = target: T3, PAPD5 var1 full length (Homo sapiens, UniProt Q8NDF8); test: Y3H ULTImate YChemH 1-by-1 validation, full length proteins; type: binding; settings: tested at 5, 10 and 20 μM, FIG. 2
T3 construct: PAPD5 var1 full length; host or cells: diploid yeast from YHGX13 (prey) x YPT6AT (DHFR hook)
T3 sequence (Q8NDF8 1-698 isoform Q8NDF8-5): as the sequence (Q8NDF8 1-698 isoform Q8NDF8-5) above
Source text: (§7) The coding sequence of full-length PAPD5var1 (NM_001040284.2) and PAPD7varX1 (XM_005248234.2) were reconstituted from an N-terminal codon-optimized gene fragment (to remove high GC content) and commercially available clones of the C-terminal regions of the proteins and cloned in frame with the Gal4 Activation Domain (AD) into plasmid pP7 (AD-Prey), derived from the original pGADGH (Bartel et al., 1993 in Cellular interactions in development: A practical approach. ed. Hartley, D. A., Oxford University Press, Oxford, pp. 153-179). The constructs were checked by sequencing the entire inserts. For each prey, a mini-mating was carried out between YHGX13 (Y187 ade2-101::IoxP-kanMX-IoxP, matα) transformed with the prey plasmids and YPT6AT yeast cells (mata) transformed with the DHFR hook (Dihydrofolate reductase) to produce a diploid yeast culture. For each interaction, DO1, 1/10, 1/100 and 1/1000 of the diploid yeast culture expressing both hook and prey constructs were spotted on a selective medium without tryptophan, leucine and histidine and supplemented with the chemical probe and FK506. Interactions were tested in duplicate. One plate was used per chemical compound and concentration (DMSO, 5, 10 and 20 μM of HBX129653, 5, 10 and 20 μM of HBX129654, 5 μM of HBX24786 Trimethoprim (TMP) and 5 μM of HBX129634 (TMP-PEG5-OH)). Plates were incubated at 30° C. for 3 days.
(§8) In a second validation step, full length proteins for PAPD5 and PAPD7 were synthesized and used for 1-by-1 validation (as described in the Materials and Method section) with DHQ and THP (Table 8).

PAPD7 var1 full length = target: T4, PAPD7 var1 full length (Homo sapiens, UniProt Q5XG87); test: as above; type: binding; settings: tested at 5, 10 and 20 μM, FIG. 2
T4 construct: PAPD7 var1 full length; host or cells: diploid yeast from YHGX13 (prey) x YPT6AT (DHFR hook)
T4 sequence (Q5XG87 whole entry): as the sequence (Q5XG87 whole entry, the tested form may be a part) above
Source text: as §7, §8

hepatitis C virus (HCV) = test: Activity against hepatitis C virus (data not shown)

SMILES	IC50 (HBV; read-out: IC50 HBsAg) [nM]	Confidence score (PAPD5 variant 1)	Confidence score (PAPD7)	Confidence score (PAPD5 variant 2)	competition of free compound with chemical probe [1]	competition of free compound with chemical probe [2]	IC50 (HBV; read-out: IC50 HBeAg) [nM]	1-by-1 validation of binding to prey fragments [3]	1-by-1 validation of binding to prey fragments (PAPD7 prey fragment)	1-by-1 validation of interaction with full length protein (PAPD5 var1 full length)	1-by-1 validation of interaction with full length protein (PAPD7 var1 full length)	activity against hepatitis C virus (HCV) (hepatitis C virus (HCV))
COc1cc2c(cc1OCCOCCOCCOCCOCCOCCOc1c(OC)cc(Cc3cnc(N)nc3N)cc1OC)C[C@@H](C(C)(C)C)n1cc(C(=O)O)c(=O)cc1-2 [HBX129653]	1180	A	A									
COc1cc(Cc2cnc(N)nc2N)cc(OC)c1OCCOCCOCCOCCOCCOCCOc1cc(N2CCc3nc(-c4ncccn4)ncc3[C@H]2C)cc(F)c1F [HBX129654]	299		A	A								
COCCCOc1cc2c(cc1OC)-c1cc(=O)c(C(=O)O)cn1[C@@H](C(C)C)C2 [INACT653]					less binding affinity	less binding affinity						
COc1cccc(-c2ncc3c(n2)CCN(c2cc(F)c(F)c(OC)c2)C3)n1 [INACT654]	> 25000											
COCCCOc1cc2c(cc1Cl)-c1cc(=O)c(C(=O)O)cn1[C@H](C(C)C)C2 [MOL653]	3				competition could be observed	competition could be observed	7	specific binders	specific binders	confirmed at the lowest tested concentration	confirmed at the lowest tested concentration	inactive
COc1cc(N2CCc3nc(-c4ncccn4)ncc3[C@H]2C)cc(F)c1F [MOL654]	3				competition could be observed	competition could be observed		specific binders	specific binders	confirmed at the lowest tested concentration	confirmed at the lowest tested concentration	inactive
